Experimental findings from article PMC6736568, “Discovery of Novel Anti-cryptosporidial Activities From Natural Products by in vitro High-Throughput Phenotypic Screening” (Frontiers in Microbiology, 2019) are described below.

Molecules are shown by their SMILES. Like-named read-outs stand apart in the source and are kept apart here.

One may read the inhibition as the change of the read-out against control, counted positive when it falls.

The test system of data set [1] is Cryptosporidium parvum. Description: qRT-PCR assay of the growth of C. parvum in vitro in HCT-8 host cells (primary and secondary screening, EC50). The format is cell-based. Conditions: Cryptosporidium parvum, HCT-8; for inhibition at 10 µM: primary screening at 10 uM, read-out: Inhibition (%).
The subject of data set [2] is HCT-8 host cells (Hs18S).
Data set [3] can be described thus: in vitro. Conditions: for cytotoxicity at 41 h, 10 µM: human.
[4] abbreviates: primary screening at 10 uM, treated vs control.

With `C=C(C)c1cc2cc(C(C)=O)c(O)cc2o1` [EUPARIN], the inhibition at 10 µM in data set [1] was 19%. Also, the “Hs18S ΔCT” value in data set [2] (setting [4]) is given as 0.23. The cytotoxicity at 10 µM in data set [3] was determined as 14.6%.
Turning to `CC(C)=CCC[C@@H](C)[C@@H]1CC[C@]2(C)C3=C(CC[C@@]12C)[C@@]1(C)CC[C@H](O)C(C)(C)[C@@H]1CC3` [EUPHOL], in data set [1], the inhibition at 10 µM is -2.84%. Moreover, the “Hs18S ΔCT” value in data set [2] (human, 41 h, 10 μM) is -0.29. The cytotoxicity at 41 h, 10 µM in data set [3] was -22.5%.
In the same order, the values of `COc1cc(C)c(C(=O)O)c(O)c1` [EVERNINIC ACID] are 52.1%, -0.34 and -26.6%.
Taken in the same sequence, the figures for `COc1c2ccoc2nc2c(OC)c(OCC(O)C(C)(C)O)ccc12` (stereo not shown) [EVOXINE] were -7.37%, 0.11 and 7%.
Taken in the same sequence, the figures for `CC(C)=CCC/C(C)=C/CC/C(C)=C/CO` [FARNESOL] were 8.75%, 0.02 and 1%.
Regarding `COC(=O)C[C@H]1C(C)(C)[C@@H](OC(C)=O)[C@@H]2CC3=C4CC(=O)O[C@@H](c5ccoc5)[C@]4(C)CC[C@@H]3[C@@]1(C)C2=O` [FISSINOLIDE], the inhibition at 10 µM in data set [1] was -39.8%. The “Hs18S ΔCT” value in data set [2] (human, 41 h, 10 μM) was -0.81. In addition, the cytotoxicity at 41 h, 10 µM in data set [3] was -75.3%.
In the same order, the values of `Nc1nc2ncc(CNc3ccc(C(=O)N[C@@H](CCC(=O)O)C(=O)O)cc3)nc2c(=O)[nH]1` [FOLIC ACID] are 3.63%, 0.02 and 1.3%.
Turning to `COc1ccc(-c2coc3cc(O)ccc3c2=O)cc1` [FORMONONETIN], the inhibition at 10 µM in data set [1] was found to be 13.2%. Further, the “Hs18S ΔCT” value in data set [2] (human, 41 h, 10 μM) is listed as -0.62. Also, in data set [3], the cytotoxicity at 41 h, 10 µM was -53.6%.
Take `COc1cc2ccc(=O)oc2c(OC)c1OC` [FRAXIDIN METHYL ETHER]: in data set [1], the inhibition at 10 µM was -37.3%. In addition, the “Hs18S ΔCT” value in data set [2] (setting [4]) is on record as -0.48. Further, the cytotoxicity at 10 µM in data set [3] was -39.5%.
Taken in the same sequence, the figures for `C[C@H]1C(=O)CC[C@@H]2[C@]1(C)CC[C@H]1[C@@]2(C)CC[C@@]2(C)[C@@H]3CC(C)(C)CC[C@]3(C)CC[C@]12C` [FRIEDELIN] were 20.8%, -0.23 and -17.6%.
In the case of `Cc1cc(O)c(C=O)c2c1C(=O)Oc1c(COC(=O)/C=C/C(=O)O)c(O)c(C(=O)O)c(C)c1O2` [FUMARPROTOCETRARIC ACID], the inhibition at 10 µM in data set [1] was -5.48%. Moreover, the “Hs18S ΔCT” value in data set [2] (human, 41 h, 10 μM) is 0.10. Moreover, in data set [3], the cytotoxicity at 41 h, 10 µM is 6.9%.
On to `CC(=O)O[C@H]1C[C@@]2(C)[C@@H](C[C@@H](O)[C@H]3[C@@]4(C)CC[C@@H](O)[C@@H](C)[C@@H]4CC[C@@]32C)/C1=C(\CCC=C(C)C)C(=O)O` [FUSIDIC ACID], for which the inhibition at 10 µM in data set [1] is -82.8%. For the same compound, the “Hs18S ΔCT” value in data set [2] (human, 41 h, 10 μM) is -0.30. Also, in data set [3], the cytotoxicity at 41 h, 10 µM is -23.2%.
Consider `O=c1c(O)c(-c2ccccc2)oc2cc(O)cc(O)c12` [GALANGIN], for which the inhibition at 10 µM in data set [1] is -14.9%. Further, the “Hs18S ΔCT” value in data set [2] (setting [4]) amounted to 0.39. The cytotoxicity at 10 µM in data set [3] worked out at 23.6%.
Taken in the same sequence, the figures for `COc1ccc2c3c1O[C@H]1C[C@@H](O)C=C[C@@]31CCN(C)C2` [GALANTAMINE] were 2.66%, -0.34 and -26.2%.
With `COC(=O)c1c(OC)cc2c(c1C)Oc1c(Cl)c(O)c(Cl)c(C)c1C(=O)O2` [GANGALEOIDIN], the inhibition at 10 µM in data set [1] is -21.6%. For the same compound, the “Hs18S ΔCT” value in data set [2] (human, 41 h, 10 μM) is on record as -0.05. In addition, in data set [3], the cytotoxicity at 41 h, 10 µM is -3.3%.
In the same order, the values of `CC(C)=CCCC1(C)C=Cc2c(O)c3c(c(CC=C(C)C)c2O1)OC12C(=CCCC1C(C)(C)O[C@@]2(C/C=C(\C)C(=O)O)C(=O)O)C3=O` (stereo partly shown) [GARCINOLIC ACID] are -51.3%, 0.36 and 22%.
Taken in the same sequence, the figures for `COc1ccc(-c2cc(=O)c3c(O)c(OC)c(OC)c(OC)c3o2)cc1` [GARDENIN B] were 53.6%, 0.25 and 16%.
In the same order, the values of `CC(=O)O[C@@H]1C[C@H]2C(C)(C)C(=O)C=C[C@]2(C)[C@H]2CC[C@@]3(C)[C@H](c4ccoc4)OC(=O)[C@H]4O[C@]43[C@@]21C` [GEDUNIN] are 6.58%, 0.02 and 1.2%.
`CN[C@@H]1[C@@H](O)[C@@H](O[C@@H]2[C@@H](O)[C@H](O[C@H]3O[C@H]([C@@H](C)O)[C@@H](O)[C@H](O)[C@H]3N)[C@@H](N)C[C@H]2N)OC[C@]1(C)O` [GENETICIN]: the inhibition at 10 µM in data set [1] is -26.1%. In addition, the “Hs18S ΔCT” value in data set [2] (setting [4]) is 0.07. Further, the cytotoxicity at 10 µM in data set [3] stood at 4.9%.
Taken in the same sequence, the figures for `O=c1c(-c2ccc(O)cc2)coc2cc(O)cc(O)c12` [GENISTEIN] were 6.85%, 0.20 and 12.7%.
In the same order, the values of `COc1cc(O)c2c(=O)cc(-c3ccc(O)cc3)oc2c1` [GENKWANIN] are -9.13%, -0.83 and -77.7%.
Turning to `C=C1C[C@]23C[C@@]1(O)CC[C@H]2[C@@]12C=C[C@H](O)[C@@](C)(C(=O)O1)[C@H]2[C@@H]3C(=O)O` [GIBBERELLIC ACID], the inhibition at 10 µM in data set [1] was 32.7%. Moreover, in data set [2] (setting [4]), the “Hs18S ΔCT” value was 0.09. Moreover, the cytotoxicity at 10 µM in data set [3] came to 5.9%.
In the same order, the values of `C[C@@H]1C(=O)O[C@H]2C[C@@]34[C@H]5C[C@@H](C(C)(C)C)[C@]36[C@@H](OC(=O)[C@@H]6O)O[C@@]4(C(=O)O5)[C@]21O` [GINKGOLIDE A] are 37.5%, 0.10 and 6.6%.
Taken in the same sequence, the figures for `C[C@H]1O[C@@H](O[C@H]2[C@@H](O)C[C@H](O[C@H]3[C@@H](O)C[C@H](O[C@H]4CC[C@@]5(C)[C@H](CC[C@@H]6[C@@H]5CC[C@]5(C)[C@@H](C7=CC(=O)OC7)[C@@H](O)C[C@]65O)C4)O[C@@H]3C)O[C@@H]2C)C[C@H](O)[C@@H]1O` [GITOXIN] were 35.4%, 0.08 and 5.4%.
Take `OC[C@@H](O)[C@@H](O[C@@H]1O[C@H](CO)[C@@H](O)[C@H](O)[C@H]1O)[C@H](O)[C@@H](O)CO` [GLUCITOL-4-GUCOPYANOSIDE]: the inhibition at 10 µM in data set [1] came to 4.89%. The “Hs18S ΔCT” value in data set [2] (human, 41 h, 10 μM) is -0.19. Further, in data set [3], the cytotoxicity at 41 h, 10 µM was -14.4%.
In the same order, the values of `N[C@@H](C(=O)O)[C@@H](O)[C@H](O)[C@H](O)CO` [GLUCOSAMINIC ACID] are -5.48%, 0.22 and 13.9%.
On to `N[C@@H](CCC(=O)N[C@@H](CS)C(=O)NCC(=O)O)C(=O)O` [GLUTATHIONE], for which, in data set [1], the inhibition at 10 µM came out at 68.1%. Also, the inhibition at 3.3 µM in data set [1] (secondary screening at 3.3 uM, read-out: % Inhibition (3.3 uM)) is -20%. In addition, the “Hs18S ΔCT” value in data set [2] (human, 41 h, 10 μM) was -0.40. Also, the cytotoxicity at 41 h, 10 µM in data set [3] was -32%.
In the case of `C[C@H](CCC(=O)NCC(=O)O)[C@H]1CC[C@H]2[C@@H]3[C@H](O)C[C@@H]4C[C@H](O)CC[C@]4(C)[C@H]3C[C@H](O)[C@]12C` [GLYCOCHOLIC ACID], the inhibition at 10 µM in data set [1] was -58.4%. In addition, the “Hs18S ΔCT” value in data set [2] (human, 41 h, 10 μM) is recorded as -0.31. Further, in data set [3], the cytotoxicity at 10 µM was -23.7%.
